The values below come from paper PMC12193096 (International Journal of Molecular Sciences, 2025).

By IC50 is commonly meant the point on the concentration scale where inhibition reaches its midpoint.

Structures are written as SMILES.

In one experiment the target is T1, YES1 (Homo sapiens, UniProt P07947).
T1 construct: EGFP-fusion of wild-type YES1
Description: live-cell confocal co-localization (HaloTag recruitment to endosome/F-actin) in HeLa cells. It counts as cell-based.

A further experiment has as its target T2, CSK (Homo sapiens, UniProt P41240).
T2 construct: EGFP-fusion of wild-type CSK
The experiment is described as above. It counts as cell-based. From the text:
live-cell confocal co-localization (HaloTag recruitment to endosome/F-actin) in HeLa cells on CSK | […]

A further experiment concerns the target T3, ABL1 (Homo sapiens, UniProt P00519).
T3 construct: recombinant active kinase ABL1
Description: Kinase-Glo Plus luminescence kinase assay; also live-cell co-localization competed by excess dasatinib. The format is biochemical. On the technique in general: Kinase-Glo measures the ATP left after a reaction by luminescence.

The target of another experiment is T4, HCK (Homo sapiens, UniProt P08631).
T4 construct: EGFP-fusion of wild-type HCK
T4 sequence (P08631 2-526): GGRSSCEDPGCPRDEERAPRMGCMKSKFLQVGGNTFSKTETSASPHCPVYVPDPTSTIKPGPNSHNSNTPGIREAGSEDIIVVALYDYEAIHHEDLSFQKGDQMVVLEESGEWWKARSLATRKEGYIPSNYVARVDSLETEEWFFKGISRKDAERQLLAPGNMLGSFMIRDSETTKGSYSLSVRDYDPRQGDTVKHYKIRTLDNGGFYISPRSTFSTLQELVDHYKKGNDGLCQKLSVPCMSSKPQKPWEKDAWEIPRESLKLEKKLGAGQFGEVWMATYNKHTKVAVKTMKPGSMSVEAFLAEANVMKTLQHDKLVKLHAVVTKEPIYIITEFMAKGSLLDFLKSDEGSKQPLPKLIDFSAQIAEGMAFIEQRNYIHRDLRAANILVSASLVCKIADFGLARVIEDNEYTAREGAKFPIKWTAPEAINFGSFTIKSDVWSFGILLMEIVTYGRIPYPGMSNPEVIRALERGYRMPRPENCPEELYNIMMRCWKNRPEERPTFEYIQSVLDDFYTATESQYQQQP
Briefly: live-cell confocal co-localization (HaloTag recruitment to endosome/F-actin) in HeLa cells. It counts as cell-based.

A further experiment addresses T5, SRC (Homo sapiens, UniProt P12931).
T5 construct: full-length SRC (EGFP-SRC)
Description: Western blot of pY416 autophosphorylation of EGFP-SRC in HeLa cells; live-cell co-localization imaging. The format is cell-based. A general note: In western blotting, separated proteins are transferred to a membrane and probed.

The target of the next experiment is T6, FGR (Homo sapiens, UniProt P09769).
T6 construct: EGFP-fusion of wild-type FGR
T6 sequence (P09769 2-529): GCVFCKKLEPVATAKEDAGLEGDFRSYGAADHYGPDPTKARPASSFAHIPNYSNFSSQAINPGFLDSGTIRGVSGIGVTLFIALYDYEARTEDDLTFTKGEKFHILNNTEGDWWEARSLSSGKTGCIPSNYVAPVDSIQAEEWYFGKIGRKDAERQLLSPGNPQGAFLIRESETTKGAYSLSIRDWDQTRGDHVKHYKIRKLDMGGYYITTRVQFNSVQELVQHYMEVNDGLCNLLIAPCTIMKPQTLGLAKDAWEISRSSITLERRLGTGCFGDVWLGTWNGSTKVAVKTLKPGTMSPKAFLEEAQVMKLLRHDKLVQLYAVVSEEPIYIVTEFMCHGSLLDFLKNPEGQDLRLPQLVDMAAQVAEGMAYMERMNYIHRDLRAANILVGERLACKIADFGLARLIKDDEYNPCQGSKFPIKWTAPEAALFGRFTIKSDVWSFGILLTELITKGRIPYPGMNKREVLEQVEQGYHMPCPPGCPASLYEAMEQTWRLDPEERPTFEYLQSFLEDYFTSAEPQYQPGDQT
Description: live-cell confocal co-localization (HaloTag recruitment to endosome/F-actin) in HeLa cells. It counts as cell-based.

In the next experiment the target is T7, LYN (Homo sapiens, UniProt P07948).
T7 construct: EGFP-fusion of wild-type LYN
T7 sequence (P07948 2-491 isoform P07948-2): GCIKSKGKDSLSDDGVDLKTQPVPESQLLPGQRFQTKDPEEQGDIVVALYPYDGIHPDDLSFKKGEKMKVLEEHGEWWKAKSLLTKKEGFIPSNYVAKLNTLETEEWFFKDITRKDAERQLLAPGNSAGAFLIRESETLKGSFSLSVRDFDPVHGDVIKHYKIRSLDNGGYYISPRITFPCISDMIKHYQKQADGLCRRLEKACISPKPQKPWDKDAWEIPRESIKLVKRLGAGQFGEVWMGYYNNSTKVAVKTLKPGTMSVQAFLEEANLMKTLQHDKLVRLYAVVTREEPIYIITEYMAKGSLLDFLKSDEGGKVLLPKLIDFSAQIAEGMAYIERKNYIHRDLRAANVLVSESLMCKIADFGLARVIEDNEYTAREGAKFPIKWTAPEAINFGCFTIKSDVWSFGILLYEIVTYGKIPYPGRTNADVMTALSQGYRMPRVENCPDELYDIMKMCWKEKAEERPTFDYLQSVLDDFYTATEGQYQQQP
Described as above. It counts as cell-based.

In another experiment the target is T8, BTK (Homo sapiens, UniProt Q06187).
T8 construct: EGFP-fusion of wild-type BTK
T8 sequence (Q06187 whole entry, the tested form may be a part): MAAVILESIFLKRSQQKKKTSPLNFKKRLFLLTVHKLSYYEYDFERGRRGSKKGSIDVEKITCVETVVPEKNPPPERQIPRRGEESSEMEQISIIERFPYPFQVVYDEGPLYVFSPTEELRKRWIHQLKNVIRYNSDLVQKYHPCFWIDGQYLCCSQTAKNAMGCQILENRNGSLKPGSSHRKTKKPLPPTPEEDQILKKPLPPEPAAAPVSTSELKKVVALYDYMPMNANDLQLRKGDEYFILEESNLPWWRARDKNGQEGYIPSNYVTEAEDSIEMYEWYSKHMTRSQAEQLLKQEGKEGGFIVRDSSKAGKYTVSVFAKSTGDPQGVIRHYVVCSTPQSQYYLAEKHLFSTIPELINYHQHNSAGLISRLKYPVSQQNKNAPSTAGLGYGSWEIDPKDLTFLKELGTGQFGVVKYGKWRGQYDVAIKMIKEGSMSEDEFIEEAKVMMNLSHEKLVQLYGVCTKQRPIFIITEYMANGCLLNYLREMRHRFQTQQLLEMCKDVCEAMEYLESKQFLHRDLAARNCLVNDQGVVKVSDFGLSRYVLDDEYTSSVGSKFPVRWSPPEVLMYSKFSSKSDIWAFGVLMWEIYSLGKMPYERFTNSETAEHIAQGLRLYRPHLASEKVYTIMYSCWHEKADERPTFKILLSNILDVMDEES
The description is as above. The format is cell-based.

T1 sequence (P07947 2-543): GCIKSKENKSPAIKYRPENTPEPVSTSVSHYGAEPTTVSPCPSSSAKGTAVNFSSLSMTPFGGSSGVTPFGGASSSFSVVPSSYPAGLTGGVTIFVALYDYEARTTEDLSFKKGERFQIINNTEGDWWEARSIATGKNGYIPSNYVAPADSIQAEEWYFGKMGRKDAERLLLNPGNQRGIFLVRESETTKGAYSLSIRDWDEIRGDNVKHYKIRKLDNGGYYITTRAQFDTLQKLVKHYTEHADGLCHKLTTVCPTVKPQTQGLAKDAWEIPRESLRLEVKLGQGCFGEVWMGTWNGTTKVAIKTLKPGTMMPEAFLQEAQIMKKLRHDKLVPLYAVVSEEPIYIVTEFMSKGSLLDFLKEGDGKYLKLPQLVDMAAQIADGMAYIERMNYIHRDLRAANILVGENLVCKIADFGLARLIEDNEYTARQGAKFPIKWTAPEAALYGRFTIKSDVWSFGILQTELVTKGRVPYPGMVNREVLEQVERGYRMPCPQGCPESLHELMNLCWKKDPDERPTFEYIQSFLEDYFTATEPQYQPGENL
T3 sequence (P00519 whole entry): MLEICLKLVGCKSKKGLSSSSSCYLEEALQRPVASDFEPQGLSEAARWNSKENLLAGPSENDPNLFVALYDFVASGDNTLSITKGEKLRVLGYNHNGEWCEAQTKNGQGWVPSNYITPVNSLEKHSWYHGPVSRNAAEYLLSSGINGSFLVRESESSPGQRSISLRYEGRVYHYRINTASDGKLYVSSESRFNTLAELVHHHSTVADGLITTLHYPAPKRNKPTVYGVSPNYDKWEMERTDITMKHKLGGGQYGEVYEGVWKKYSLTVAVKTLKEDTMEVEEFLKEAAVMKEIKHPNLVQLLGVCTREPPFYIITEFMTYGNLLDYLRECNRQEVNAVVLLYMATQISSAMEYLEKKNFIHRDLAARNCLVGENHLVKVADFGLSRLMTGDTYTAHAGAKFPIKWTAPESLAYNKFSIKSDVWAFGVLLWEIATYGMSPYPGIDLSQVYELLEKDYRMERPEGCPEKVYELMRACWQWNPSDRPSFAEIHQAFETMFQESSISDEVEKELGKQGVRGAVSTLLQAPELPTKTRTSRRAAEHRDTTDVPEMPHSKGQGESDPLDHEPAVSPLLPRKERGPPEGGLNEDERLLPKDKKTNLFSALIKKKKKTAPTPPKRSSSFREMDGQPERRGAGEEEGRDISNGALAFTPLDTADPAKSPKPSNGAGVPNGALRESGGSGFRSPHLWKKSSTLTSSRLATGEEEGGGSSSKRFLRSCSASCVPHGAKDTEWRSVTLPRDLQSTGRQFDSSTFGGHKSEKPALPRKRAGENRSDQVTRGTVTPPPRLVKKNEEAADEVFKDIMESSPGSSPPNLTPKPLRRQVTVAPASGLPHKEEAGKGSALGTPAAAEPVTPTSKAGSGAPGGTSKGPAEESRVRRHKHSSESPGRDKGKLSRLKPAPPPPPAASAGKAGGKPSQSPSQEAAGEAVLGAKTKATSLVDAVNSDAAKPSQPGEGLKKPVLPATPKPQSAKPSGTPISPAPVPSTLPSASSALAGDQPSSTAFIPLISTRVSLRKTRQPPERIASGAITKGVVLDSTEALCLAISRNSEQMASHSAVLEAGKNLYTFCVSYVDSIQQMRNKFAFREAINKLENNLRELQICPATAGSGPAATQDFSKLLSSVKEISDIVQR
T2 sequence (P41240 whole entry, the tested form may be a part): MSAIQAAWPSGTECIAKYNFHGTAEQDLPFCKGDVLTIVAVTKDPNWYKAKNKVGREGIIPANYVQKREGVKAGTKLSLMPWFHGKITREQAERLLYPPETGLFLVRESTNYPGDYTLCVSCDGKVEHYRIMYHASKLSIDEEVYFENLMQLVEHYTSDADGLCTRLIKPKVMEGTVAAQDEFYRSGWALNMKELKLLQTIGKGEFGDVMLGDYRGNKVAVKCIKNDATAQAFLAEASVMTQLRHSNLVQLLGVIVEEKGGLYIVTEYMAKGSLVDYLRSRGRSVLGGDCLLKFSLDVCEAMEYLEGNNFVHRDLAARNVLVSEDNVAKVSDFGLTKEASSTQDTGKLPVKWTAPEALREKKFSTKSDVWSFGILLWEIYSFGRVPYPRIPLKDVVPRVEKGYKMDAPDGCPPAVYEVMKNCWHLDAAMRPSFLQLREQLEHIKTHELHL
T5 sequence (P12931 2-536): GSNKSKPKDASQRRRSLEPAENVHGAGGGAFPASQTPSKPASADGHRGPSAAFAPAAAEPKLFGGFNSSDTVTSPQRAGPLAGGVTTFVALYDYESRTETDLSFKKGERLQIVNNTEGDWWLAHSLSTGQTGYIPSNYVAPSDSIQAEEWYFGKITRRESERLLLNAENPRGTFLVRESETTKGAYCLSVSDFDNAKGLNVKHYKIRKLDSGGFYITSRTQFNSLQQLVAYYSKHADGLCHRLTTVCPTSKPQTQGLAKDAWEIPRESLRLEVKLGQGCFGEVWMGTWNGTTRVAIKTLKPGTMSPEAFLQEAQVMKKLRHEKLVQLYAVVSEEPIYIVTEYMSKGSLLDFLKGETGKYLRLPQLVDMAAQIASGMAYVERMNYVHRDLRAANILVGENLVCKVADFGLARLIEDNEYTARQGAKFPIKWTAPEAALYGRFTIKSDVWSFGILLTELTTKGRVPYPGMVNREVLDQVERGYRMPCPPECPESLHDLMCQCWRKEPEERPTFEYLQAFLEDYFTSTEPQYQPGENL

Turning to `Cc1nc(Nc2ncc(C(=O)Nc3c(C)cccc3Cl)s2)cc(N2CCN(CCNC(=O)CCC(=O)NCCOCCOCCCCCCCl)CC2)n1` [dasatinib−HT ligand], the “live-cell confocal co-localization (HaloTag recruitment to endosome/F-actin) in” value was “the GFP-fusion kinase co-localized with the intracellular compartments” on YES1; “clearly showed binding events between dasatinib and its target kinases (ABL1, SRC, CSK, etc.) at specific subcellular structures” on CSK; “the GFP-fusion kinase co-localized with the intracellular compartments” on HCK; “the GFP-fusion kinase co-localized with the intracellular compartments” at FGR; “the GFP-fusion kinase co-localized with the intracellular compartments” at LYN; “the GFP-fusion kinase co-localized with the intracellular compartments” on BTK. On ABL1, the half-inhibitory concentration (IC50) is 153 nM. For the same compound, the “Western blot of pY416 autophosphorylation of EGFP-SRC in HeLa cells; live-cell c” value at SRC is given as “the levels of active, phosphorylated SRC significantly decreased compared with those in vehicle-treated HeLa cells”.
